Experimental data from US20260167927A1, “GLOMUS CELL-LIKE CELLS AND PRODUCTION METHOD THEREOF” (NATIONAL INSTITUTE OF ADVANCED INDUSTRIAL SCIENCE AND …, priority 2022, published 2026).

Test system: glomus cell-like cells
Assay: ATP production by glomus cell-like cells in response to hypoxic stimulation with ion channel inhibitors
Format: cell-based, human
Details: for effect on ATP production in response to hypoxic stimulation: 2% O2, 10 to 30 minutes, vs KRB without inhibitor
Procedure: Glomus cell-like cells on days 16 to 19 of induction were used. With Krebs-Ringer buffer (KRB: 120 mM of NaCl, 5 mM of KCI, 25 mM of NaHCO3, 2.5 mM of CaCI2, 1.1 mM of MgCl2, 0.1% bovine serum albumin, 2.8 mM of glucose, pH 7.2), glomus cell-like cells were washed twice. After adding KRB, the cells were incubated in a hypoxic CO2 incubator (2% O2) for 10 to 30 minutes. The supernatant was collected, and then ATP was measured using the ATP Determination Kit (Thermo Fisher Scientific: A22066). Cells were lysed in RIPA buffer (FUJIFILM Wako Pure Chemical Corporation: 182-02451), and the total protein content was determined using a Pierce™ BCA Protein Assay Kit (Thermo Fisher Scientific: 23225). ATP measurement results were corrected according to the total protein content.
Using KRB containing the K^+ channel inhibitor tetraethylammonium chloride (FUJIFILM Wako Pure Chemical Corporation: 206-04501) (final concentration: 5 mM), the Ca^2+ channel inhibitor nifedipine (FUJIFILM Wako Pure Chemical Corporation: 141-05783) (final concentration: 5 μM), or the Na^+ channel inhibitor lidocaine (FUJIFILM Wako Pure Chemical Corporation: 120-02691) (final concentration: 1 μM), cells were subjected to hypoxic stimulation using the procedure described in (3-1) above, and the amount of ATP production was analyzed. KRB without ion channel inhibitors was used as a control to analyze ATP production similarly.

## CCN(CC)CC(=O)Nc1c(C)cccc1C [lidocaine, Lidocaine]
Lidocaine 1 μM in KRB
  effect on ATP production in response to hypoxic stimulation: inhibitory effect

## CC[N+](CC)(CC)CC.[Cl-] [tetraethylammonium chloride]
Tetraethylammonium chloride 5 mM in KRB
  effect on ATP production in response to hypoxic stimulation: promoting effect

## apyrase
Apyrase (ATPase) 2 U/mL added, FIG. 11
  ATP detected after hypoxic stimulation: no ATP was detected
